Data published in patent US12622910B2, “Inhibitors of Bruton's tyrosine kinase and methods of their use” (Janssen Pharmaceutica NV, priority 2021, dated 2026).

Assay: Phase 1 first-in-human study, safety (TEAEs)
Assay type: in vivo
Source text: Study Participants—Volunteers aged 18-58 years, with a body mass index (BMI) of 18-30 kg/m^2, body weight ≥50 kg, and who were considered healthy based on medical history, physical examination, clinical laboratory evaluation, and 12-lead electrocardiogram (ECG) were enrolled in this study. Females were required to be surgically sterile or postmenopausal. Key exclusion criteria were history of, or current, clinically significant medical illness and history of malignancy within 5 years.
Study Design—This phase 1, randomized, double-blind, placebo-controlled, single-center study (NCT03607513; EudraCT 2018-000428-32) was conducted between July 2018 and August 2019 at the Janssen Clinical Pharmacology Unit in Merksem, Belgium.The study comprised two distinct parts; Part 1 examined SAD of compound of Formula (III) and Part 2 assessed MAD of compound of Formula (III).
Safety, tolerability, PK, and BTKO were assessed for six doses of compound of Formula (III) oral solution (4, 12, 36, 100, 200, 400 mg) in participants under fasted conditions. The SAD part comprised 10 cohorts of 8 participants each (FIG. 1). In each cohort receiving compound of Formula (III) oral solution (Cohorts 1-9), 6 participants were randomized to receive compound of Formula (III) and 2 to receive placebo. All participants in Cohort 10 received compound of Formula (III) as an oral capsule. All 10 cohorts included 2 sentinel participants who were dosed ˜24 hours prior to the rest of the cohort. In cohorts receiving compound of Formula (III) oral solution, 1 sentinel participant received compound of Formula (III) and the other received placebo.
Six male escalating dose cohorts received a single oral dose of 4, 12, 36, 100, 200, 400 mg compound of Formula (III) or placebo solution under fasted conditions. Gender effects were assessed in 2 female cohorts whose participants received either a 36 or 100 mg dose of compound of Formula (III) or placebo as an oral solution under fasted conditions. Food effects were evaluated in a male cohort receiving compound of Formula (III) 100 mg or placebo as an oral solution after a high-fat breakfast.
Safety, tolerability, and PK of a solid dose formulation of compound of Formula (III) were assessed in an additional male cohort (Cohort 10) that received 3×35 mg (105 mg) of compound of Formula (III) in the fasted state. Since all the participants received the same dose of compound of Formula (III), this cohort was not blinded.
Safety, tolerability, PK, and BTKO following multiple compound of Formula (III) doses were evaluated in 3 dose escalation cohorts with a total of 18 participants (males: 9, females: 9) receiving active study drug. In each cohort, 3 males and 3 females were randomized to receive 36 mg once-daily (QD), 100 mg QD, or 200 mg QD compound of Formula (III) oral solution and 3 participants (males: 2; female: 1) to receive placebo. Two male participants in each cohort served as sentinel participants: one received compound of Formula (III) and other received placebo ˜48 hours prior to other participants in the cohort. All safety and tolerability data (through the follow-up visit), PK data (through at least 24 hours after last dose administration), and all available PD data were reviewed from each cohort before a decision was made to dose escalate.
Safety—Safety evaluations were based upon the type, incidence, and severity of treatment-emergent adverse events (TEAEs) reported throughout the study, and concomitant medication reporting, clinical laboratory tests, physical examinations, vital sign measurements, and ECGs assessed at pre-defined time points. The TEAEs and serious TEAEs were coded using the Medical Dictionary for Regulatory Activities (MedDRA Version 21.0) and summarized by system-organ class (SOC) and preferred terms.

## C=CC(=O)N[C@H]1CCC[C@H]1NC(=O)c1sc2nccc3c2c1NC(=O)N3c1cnc(CC(C)C)cc1C (atropisomer, axis not shown) [compound of Formula (III), N-((1R,2S)-2-Acrylamidocyclopentyl)-5-(S)-(6-isobutyl-4-methylpyridin-3-yl)-4-oxo-4,5-dihydro-3H-1-thia-3,5,8-triazaacenaphthylene-2-carboxamide]
Part 1, 4 mg fasted
  Administration site irritation, n (%): 1
  Headache, n (%): 1
  Patients with ≥1 TEAEs, n (%): 2
Part 1, 12 mg fasted
  Administration site irritation, n (%): 0
  Headache, n (%): 2
  Patients with ≥1 TEAEs, n (%): 3
Part 1, 36 mg fasted
  Administration site irritation, n (%): 0
  Headache, n (%): 2
  Patients with ≥1 TEAEs, n (%): 4
Part 1, 100 mg fasted
  Administration site irritation, n (%): 0
  Headache, n (%): 0
  Patients with ≥1 TEAEs, n (%): 4
Part 1, 100 mg fed
  Administration site irritation, n (%): 0
  Headache, n (%): 1
  Patients with ≥1 TEAEs, n (%): 1
Part 1, 105 mg solid
  Administration site irritation, n (%): 0
  Headache, n (%): 1
  Patients with ≥1 TEAEs, n (%): 3
Part 1, 200 mg fasted
  Administration site irritation, n (%): 1
  Headache, n (%): 1
  Patients with ≥1 TEAEs, n (%): 4
Part 1, 400 mg fasted
  Administration site irritation, n (%): 0
  Headache, n (%): 0
  Patients with ≥1 TEAEs, n (%): 3
Part 1, all treated
  headache, incidence: 13.3%
  nasal congestion, incidence: 5%
Part 1, total N = 60
  Administration site irritation, n (%): 2(3.3)
  Headache, n (%): 8 (13.3)
Part 2, 36 mg
  Abdominal discomfort, n (%): 1 (16.7)
  Abdominal pain, n (%): 0
  Abnormal dreams, n (%): 0
  Administration site irritation, n (%): 1 (16.7)
  Back pain, n (%): 1 (16.7)
  Cough, n (%): 0
  Dehydration, n (%): 0
  Diarrhea, n (%): 0
  Dizziness, n (%): 0
  Dysgeusia, n (%): 0
  Fatigue, n (%): 0
  Flatulence, n (%): 1 (16.7)
  Headache, n (%): 0
  Hot flush, n (%): 0
  Increased bronchial secretion, n (%): 0
  Injection site hematoma, n (%): 0
  Injection site reaction, n (%): 1 (16.7)
  Lipase increased, n (%): 0
  Myalgia, n (%): 0
  Nasopharyngitis, n (%): 0
  Nausea, n (%): 0
  Oral dysaesthesia, n (%): 0
  Oropharyngeal pain, n (%): 0
  Paresthesia, n (%): 2 (33.3)
  Patients with ≥1 TEAEs, n (%): 4 (66.7)
  Regurgitation, n (%): 1 (16.7)
  Skin irritation, n (%): 0
  Skin reaction, n (%): 1 (16.7)
  Somnolence, n (%): 0
  Vertigo, n (%): 0
  Vessel puncture site hematoma, n (%): 0
  Vision blurred, n (%): 0
Part 2, 100 mg
  Abdominal discomfort, n (%): 1 (16.7)
  Abdominal pain, n (%): 0
  Abnormal dreams, n (%): 0
  Administration site irritation, n (%): 2 (33.3)
  Back pain, n (%): 0
  Cough, n (%): 0
  Dehydration, n (%): 0
  Diarrhea, n (%): 1 (16.7)
  Dizziness, n (%): 0
  Dysgeusia, n (%): 0
  Fatigue, n (%): 0
  Flatulence, n (%): 0
  Headache, n (%): 0
  Hot flush, n (%): 1 (16.7)
  Increased bronchial secretion, n (%): 0
  Injection site hematoma, n (%): 2 (33.3)
  Injection site reaction, n (%): 1 (16.7)
  Lipase increased, n (%): 0
  Myalgia, n (%): 1 (16.7)
  Nasopharyngitis, n (%): 0
  Nausea, n (%): 0
  Oral dysaesthesia, n (%): 0
  Oropharyngeal pain, n (%): 0
  Paresthesia, n (%): 0
  Patients with ≥1 TEAEs, n (%): 5 (83.3)
  Regurgitation, n (%): 0
  Skin irritation, n (%): 0
  Skin reaction, n (%): 0
  Somnolence, n (%): 1 (16.7)
  Vertigo, n (%): 0
  Vessel puncture site hematoma, n (%): 1 (16.7)
  Vision blurred, n (%): 0
Part 2, 200 mg
  Abdominal discomfort, n (%): 0
  Abdominal pain, n (%): 1 (16.7)
  Abnormal dreams, n (%): 0
  Administration site irritation, n (%): 0
  Back pain, n (%): 0
  Cough, n (%): 0
  Dehydration, n (%): 0
  Diarrhea, n (%): 0
  Dizziness, n (%): 1 (16.7)
  Dysgeusia, n (%): 0
  Fatigue, n (%): 1 (16.7)
  Flatulence, n (%): 0
  Headache, n (%): 1 (16.7)
  Hot flush, n (%): 1 (16.7)
  Increased bronchial secretion, n (%): 0
  Injection site hematoma, n (%): 0
  Injection site reaction, n (%): 0
  Lipase increased, n (%): 0
  Myalgia, n (%): 0
  Nasopharyngitis, n (%): 0
  Nausea, n (%): 0
  Oral dysaesthesia, n (%): 0
  Oropharyngeal pain, n (%): 0
  Paresthesia, n (%): 0
  Patients with ≥1 TEAEs, n (%): 5 (83.3)
  Regurgitation, n (%): 1 (16.7)
  Skin irritation, n (%): 0
  Skin reaction, n (%): 1 (16.7)
  Somnolence, n (%): 0
  Vertigo, n (%): 0
  Vessel puncture site hematoma, n (%): 0
  Vision blurred, n (%): 1 (16.7)
Part 2, 200 mg group, after 8 days
  participants discontinued due to a TEAE (mild transaminases increased): 1
Part 2, all treated [2/18]
  abdominal discomfort, back pain, hot flush, paresthesia, regurgitation, skin reaction: incidence of each: 11.1%
Part 2, all treated [3/18]
  administration site irritation, incidence: 16.7%
Part 2, total N = 18
  Abdominal discomfort, n (%): 2 (11.1)
  Abdominal pain, n (%): 1 (5.6)
  Abnormal dreams, n (%): 0
  Administration site irritation, n (%): 3 (16.7)
  Back pain, n (%): 1 (16.7)
  Cough, n (%): 0
  Dehydration, n (%): 0
  Diarrhea, n (%): 1 (5.6)
  Dizziness, n (%): 1 (5.6)
  Dysgeusia, n (%): 0
  Fatigue, n (%): 1 (5.6)
  Flatulence, n (%): 1 (5.6)
  Headache, n (%): 1 (5.6)
  Hot flush, n (%): 2 (11.1)
  Increased bronchial secretion, n (%): 0
  Injection site hematoma, n (%): 2 (11.1)
  Injection site reaction, n (%): 2 (11.1)
  Lipase increased, n (%): 0
  Myalgia, n (%): 0
  Nasopharyngitis, n (%): 0
  Nausea, n (%): 0
  Oropharyngeal pain, n (%): 0
  Paresthesia, n (%): 2 (11.1)
  Regurgitation, n (%): 2 (11.1)
  Skin irritation, n (%): 0
  Skin reaction, n (%): 2 (11.1)
  Somnolence, n (%): 1 (5.6)
  Vertigo, n (%): 0
  Vessel puncture site hematoma, n (%): 1 (5.6)
  Vision blurred, n (%): 1 (5.6)
Parts 1 and 2
  serious TEAEs: No serious TEAEs
  severity of TEAEs: mild to moderate
